Source: patent publication US8377974B2 (Millennium Pharmaceuticals, Inc., priority 2004, dated 2013)
Each block holds one molecule with its values, some of them ahead of it.

Target: T1, human plasma protein factor Xa (Homo sapiens, UniProt P00742)
T1 construct: measure proteolytic activity of the enzyme (factor Xa); purchased Haematologic Technologies (Essex Junction, Vt.); host or cells: human plasma
Test: Factor Xa IC50 determination: cleavage of paranitroanilide substrate S-2765 in 96-well plates
Format: biochemical
Conditions: fXa 1 nM, S-2765 100 μM, Tris buffered saline pH 7.4, room temperature
How it was run: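 Initial rates of S-2765 (100 μM final) cleavage, read at 405 nm for 2 min, fitted with a four-parameter equation to give IC50. Enzyme: 1 nM human plasma fXa, 5 min room-temperature preincubation with inhibitor (0.01 nM–10 μM) in 20 mM Tris, 150 mM NaCl, 5 mM CaCl2, 0.1% BSA, 5% DMSO, pH 7.4; duplicates.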

T1 sequence (P00742 235-488 limits assumed): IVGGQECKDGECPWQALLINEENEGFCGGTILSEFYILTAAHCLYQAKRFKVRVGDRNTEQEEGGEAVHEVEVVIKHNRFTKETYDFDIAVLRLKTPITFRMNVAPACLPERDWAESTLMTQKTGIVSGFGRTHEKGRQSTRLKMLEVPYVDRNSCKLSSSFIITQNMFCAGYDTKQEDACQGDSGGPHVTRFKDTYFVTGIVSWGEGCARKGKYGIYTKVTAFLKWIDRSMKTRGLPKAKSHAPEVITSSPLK
T1 sequence (P00742 41-179 partner limits assumed): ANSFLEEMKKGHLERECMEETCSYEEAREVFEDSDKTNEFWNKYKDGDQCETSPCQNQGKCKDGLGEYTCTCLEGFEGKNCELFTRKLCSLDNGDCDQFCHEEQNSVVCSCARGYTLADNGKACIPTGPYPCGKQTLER

SMILES: O=C(NCc1cn(-c2ccc(-n3ccccc3=O)nc2)nn1)c1ccc(Cl)s1 [Example 389, 5-Chloro-N-((1-(6-(2-oxopyridin-1(2H)-yl)pyridin-3-yl)-1H-1,2,3-triazol-4-yl)methyl)thiophene-2-carboxamide]
IC50: ≤ 100 nM

SMILES: CN(Cc1ccco1)C(=N)c1ccc(-c2nc(CNC(=O)c3ccc(Cl)s3)co2)cc1 [Example 349, N-((2-(4-(N-(Furan-2-ylmethyl)-N-methylcarbamimidoyl)phenyl)oxazol-4-yl)methyl)-5-chlorothiophene-2-carboxamide]
IC50: 100 to 500 nM

SMILES: O=C(NCc1cn(-c2ccc(I)cc2F)nn1)c1ccc(Cl)s1 [Example 304, 5-Chloro-N-((1-(2-fluoro-4-iodophenyl)-1H-1,2,3-triazol-4-yl)methyl)thiophene-2-carboxamide]
IC50: ≥ 500 nM

SMILES: N=C(c1ccc(-c2cc(CNC(=O)c3ccc(Cl)s3)no2)cc1)N1CCCC1 [Example 332, 5-Chloro-N-((5-(4-(imino(pyrrolidin-1-yl)methyl)phenyl)isoxazol-3-yl)methyl)thiophene-2-carboxamide]
IC50: ≤ 100 nM

SMILES: CCN(C)C(=N)c1ccc(-c2cc(CN(C)C(=O)c3ccc(Cl)s3)on2)cc1 [Example 42, 5-Chloro-thiophene-2-carboxylic acid {3-[4-(N-ethyl-N-methyl-carbamimidoyl)-phenyl]-isoxazol-5-ylmethyl}-methyl-amide]
IC50: ≥ 500 nM

SMILES: C#CCN(C)C(=N)c1ccc(-c2nc(CNC(=O)c3ccc(Cl)s3)cs2)cc1 [Example 357, N-((2-(4-(N-Methyl-N-(prop-2-ynyl)carbamimidoyl)phenyl)thiazol-4-yl)methyl)-5-chlorothiophene-2-carboxamide]
IC50: ≥ 500 nM

Next, values leading:

IC50: ≤ 100 nM
SMILES: COc1cccn(-c2ccc(C3=NOC(CNC(=O)c4ccc(Cl)s4)C3)cc2)c1=O (stereo not drawn) [Example 282, 5-Chloro-N-((3-(4-(3-methoxy-2-oxopyridin-1(2H)-yl)phenyl)-4,5-dihydroisoxazol-5-yl)methyl)thiophene-2-carboxamide]

IC50: ≤ 100 nM
SMILES: CN1CCN=C1c1ccc(C2=NOC(CNC(=O)c3ccc(Cl)s3)C2)c(N2CCCCCC2)c1 (stereo not drawn) [Example 91, 5-Chloro-thiophene-2-carboxylic acid {3-[2-azepan-1-yl-4-(1-methyl-4,5-dihydro-1H-imidazol-2-yl)-phenyl]-4,5-dihydro-isoxazol-5-ylmethyl}-amide]

IC50: ≤ 100 nM
SMILES: O=C(NCC1CC(c2ccc(-c3ccccc3CN3CCOCC3)cc2)=NO1)c1ccc(Cl)s1 (stereo not drawn) [Example 197, 5-Chloro-thiophene-2-carboxylic acid [3-(2′-morpholin-4-ylmethyl-biphenyl-4-yl)-4,5-dihydro-isoxazol-5-ylmethyl]-amide]

IC50: ≤ 100 nM
SMILES: CN(C)C(=N)c1ccc(C2=NOC(CNC(=O)c3ccc(Cl)s3)C2)c(OC2CCCCC2)c1 (stereo not drawn) [Example 115, 5-Chloro-thiophene-2-carboxylic acid {3-[2-cyclohexyloxy-4-(N,N-dimethyl-carbamimidoyl)-phenyl]-4,5-dihydro-isoxazol-5-ylmethyl}-amide]

IC50: ≤ 100 nM
SMILES: COc1cc(C2=NCCN2C)ccc1C1=NOC(CNC(=O)c2ccc(Cl)s2)C1 (stereo not drawn) [Example 103, 5-Chloro-thiophene-2-carboxylic acid {3-[2-methoxy-4-(1-methyl-4,5-dihydro-1H-imidazol-2-yl)-phenyl]-4,5-dihydro-isoxazol-5-ylmethyl}-amide]

IC50: ≤ 100 nM
SMILES: CN1CCN=C1c1ccc(C2=NOC(CNC(=O)c3ccc(Cl)s3)C2)cc1 (stereo not drawn) [Example 9, 5-Chloro-thiophene-2-carboxylic acid {3-[4-(1-methyl-4,5-dihydro-1H-imidazol-2-yl)-phenyl]-4,5-dihydro-isoxazol-5-ylmethyl}-amide]

IC50: ≥ 500 nM
SMILES: O=C(NCC1CC(c2ccc(-c3ccccc3Cl)cc2)=NO1)c1ccc(Cl)s1 (stereo not drawn) [Example 184, 5-Chloro-thiophene-2-carboxylic acid [3-(2′-chloro-biphenyl-4-yl)-4,5-dihydro-isoxazol-5-ylmethyl]-amide]

IC50: ≤ 100 nM
SMILES: CCOc1cc(C2=NCCN2C)ccc1-c1cc(CNC(=O)c2ccc(Cl)s2)on1 [Example 123, 5-Chloro-thiophene-2-carboxylic acid {3-[2-ethoxy-4-(1-methyl-4,5-dihydro-1H-imidazol-2-yl)-phenyl]-isoxazol-5-ylmethyl}-amide]

IC50: ≤ 100 nM
SMILES: COc1cc(C(=N)N2CCCC2)ccc1-c1cc(CNC(=O)c2ccc(Cl)s2)on1 [Example 120, 5-Chloro-thiophene-2-carboxylic acid {3-[4-(imino-pyrrolidin-1-yl-methyl)-2-methoxy-phenyl]-isoxazol-5-ylmethyl}-amide]
